Measured values as given in patent US20150291593A1, “NOVEL HETEROARYL AND HETEROCYCLE COMPOUNDS, COMPOSITIONS AND METHODS” (HUTCHISON MEDIPHARMA LIMITED, priority 2012, published 2015).

How the values were obtained:
p110α/p85α = biological target: T1, p110α/p85α (Homo sapiens, UniProt P42336); test: Transcreener KINASE Assay, kinase inhibition of p110α/p85α; type: biochemical; conditions: @ 1 uM
T1 construct: purchased Invitrogen
Procedure: PI3K kinases including p110α/p85α, p110δ/p85α and p110γ are purchased from Invitrogen, and p110β/p85α is from Millipore.
Primary screening data and IC50 values are measured using Transcreener™ KINASE Assay (Bellbrook, Catalog #3003-10K). […] It is a universal, homogenous, high throughput screening (HTS) technology using a far-red, competitive fluorescence polarization immunoassay based on the detection of ADP to monitor the activity of enzymes that catalyze group transfer reactions. Briefly, the Transcreener KINASE Assay is designed as a simple two-part, endpoint assay.
In the first step, the 25 ul kinase reaction is performed by preparing a reaction mixture containing 5 ul test compound (2% DMSO final concentration), 10 ul kinase, buffer (50 mM HEPES, 100 mM NaCl, 1 mM EGTA, 0.03% CHAPS, 3 mM MgCl2, and freshly supplemented 1 mM DTT), and 10 ul 30 uM PIP2/10 uM ATP. The plate is sealed and incubated for 80 min at room temperature. Next, 25 ul ADP detection mix is added per well. The plate is sealed again and incubated for 60 min at room temperature, and then measure fluorescence polarization by Tecan Infinite F500 Reader.
Data is analyzed and IC50s are generated using the add-in software for Microsoft Excel, Xlfit™ (version 2.0). IH %=(ADP amount under 2% DMSO-ADP amount under test compound)/ADP amount under 2% DMSO.

p110β/p85α = biological target: T2, p110β/p85α (Homo sapiens, UniProt P42338); test: Transcreener KINASE Assay, kinase inhibition of p110β/p85α; type: biochemical
T2 construct: purchased Millipore
T2 sequence (P42338 whole entry, species assumed): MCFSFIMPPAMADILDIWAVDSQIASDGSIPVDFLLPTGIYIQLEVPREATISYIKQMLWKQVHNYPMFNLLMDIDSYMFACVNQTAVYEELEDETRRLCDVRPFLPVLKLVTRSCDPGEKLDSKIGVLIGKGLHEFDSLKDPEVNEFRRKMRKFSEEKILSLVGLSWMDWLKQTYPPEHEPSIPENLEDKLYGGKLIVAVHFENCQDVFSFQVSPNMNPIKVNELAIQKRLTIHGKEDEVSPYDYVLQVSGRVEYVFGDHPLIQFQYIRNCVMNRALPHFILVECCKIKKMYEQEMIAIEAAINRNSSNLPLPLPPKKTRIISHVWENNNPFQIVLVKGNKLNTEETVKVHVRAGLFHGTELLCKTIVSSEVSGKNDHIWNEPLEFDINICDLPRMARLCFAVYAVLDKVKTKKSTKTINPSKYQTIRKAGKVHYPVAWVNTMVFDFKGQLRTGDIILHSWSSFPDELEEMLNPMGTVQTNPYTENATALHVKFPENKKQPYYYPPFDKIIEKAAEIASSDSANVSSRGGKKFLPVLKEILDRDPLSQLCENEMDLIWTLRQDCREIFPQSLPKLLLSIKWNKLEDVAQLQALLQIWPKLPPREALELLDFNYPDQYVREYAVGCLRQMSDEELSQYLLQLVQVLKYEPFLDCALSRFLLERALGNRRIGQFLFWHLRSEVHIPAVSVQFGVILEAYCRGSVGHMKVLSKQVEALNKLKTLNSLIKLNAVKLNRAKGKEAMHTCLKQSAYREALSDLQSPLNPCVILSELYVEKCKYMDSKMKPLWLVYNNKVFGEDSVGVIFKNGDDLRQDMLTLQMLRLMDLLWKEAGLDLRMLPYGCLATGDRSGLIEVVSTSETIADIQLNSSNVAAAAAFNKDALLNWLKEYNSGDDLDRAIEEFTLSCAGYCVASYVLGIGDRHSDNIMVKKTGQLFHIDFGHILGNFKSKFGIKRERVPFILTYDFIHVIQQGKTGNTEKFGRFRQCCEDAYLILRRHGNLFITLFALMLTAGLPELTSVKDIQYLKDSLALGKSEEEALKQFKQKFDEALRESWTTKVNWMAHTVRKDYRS
T2 sequence (P27986 whole entry partner, species assumed): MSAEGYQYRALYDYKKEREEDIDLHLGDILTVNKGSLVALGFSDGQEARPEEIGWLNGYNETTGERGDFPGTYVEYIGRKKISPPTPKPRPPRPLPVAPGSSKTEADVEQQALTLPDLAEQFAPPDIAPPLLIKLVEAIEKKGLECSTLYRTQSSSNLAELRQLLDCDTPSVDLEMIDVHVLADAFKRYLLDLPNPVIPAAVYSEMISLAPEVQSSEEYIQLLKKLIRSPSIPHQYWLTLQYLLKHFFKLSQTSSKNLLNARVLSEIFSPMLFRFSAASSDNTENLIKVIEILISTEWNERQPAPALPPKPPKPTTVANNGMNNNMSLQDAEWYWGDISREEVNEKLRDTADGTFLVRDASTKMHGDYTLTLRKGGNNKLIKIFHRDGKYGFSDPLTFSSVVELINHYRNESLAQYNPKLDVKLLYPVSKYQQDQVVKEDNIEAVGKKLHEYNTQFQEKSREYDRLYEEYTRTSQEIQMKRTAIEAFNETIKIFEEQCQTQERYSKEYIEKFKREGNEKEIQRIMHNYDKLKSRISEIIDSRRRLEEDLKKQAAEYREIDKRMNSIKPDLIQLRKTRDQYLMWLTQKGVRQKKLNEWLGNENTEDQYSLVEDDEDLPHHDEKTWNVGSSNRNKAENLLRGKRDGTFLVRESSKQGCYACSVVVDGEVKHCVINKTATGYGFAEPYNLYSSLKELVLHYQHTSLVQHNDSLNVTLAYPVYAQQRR
Summary of the method: (§1)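 Recombinant PI3K/p85α heterodimers were incubated with compound (2% DMSO final) for 80 min at room temperature in 50 mM HEPES, 100 mM NaCl, 1 mM EGTA, 0.03% CHAPS, 3 mM MgCl2, 1 mM DTT, with substrate added as a 30 uM PIP2/10 uM ATP mix. ADP was detected by competitive fluorescence polarization immunoassay.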

p110δ/p85α = biological target: T3, p110δ/p85α (Homo sapiens, UniProt O00329); test: Transcreener KINASE Assay, kinase inhibition of p110δ/p85α; type: biochemical; conditions: for IC50: read-out: PI3Kδ IC50
T3 construct: purchased Invitrogen
T3 sequence (O00329 whole entry, species assumed): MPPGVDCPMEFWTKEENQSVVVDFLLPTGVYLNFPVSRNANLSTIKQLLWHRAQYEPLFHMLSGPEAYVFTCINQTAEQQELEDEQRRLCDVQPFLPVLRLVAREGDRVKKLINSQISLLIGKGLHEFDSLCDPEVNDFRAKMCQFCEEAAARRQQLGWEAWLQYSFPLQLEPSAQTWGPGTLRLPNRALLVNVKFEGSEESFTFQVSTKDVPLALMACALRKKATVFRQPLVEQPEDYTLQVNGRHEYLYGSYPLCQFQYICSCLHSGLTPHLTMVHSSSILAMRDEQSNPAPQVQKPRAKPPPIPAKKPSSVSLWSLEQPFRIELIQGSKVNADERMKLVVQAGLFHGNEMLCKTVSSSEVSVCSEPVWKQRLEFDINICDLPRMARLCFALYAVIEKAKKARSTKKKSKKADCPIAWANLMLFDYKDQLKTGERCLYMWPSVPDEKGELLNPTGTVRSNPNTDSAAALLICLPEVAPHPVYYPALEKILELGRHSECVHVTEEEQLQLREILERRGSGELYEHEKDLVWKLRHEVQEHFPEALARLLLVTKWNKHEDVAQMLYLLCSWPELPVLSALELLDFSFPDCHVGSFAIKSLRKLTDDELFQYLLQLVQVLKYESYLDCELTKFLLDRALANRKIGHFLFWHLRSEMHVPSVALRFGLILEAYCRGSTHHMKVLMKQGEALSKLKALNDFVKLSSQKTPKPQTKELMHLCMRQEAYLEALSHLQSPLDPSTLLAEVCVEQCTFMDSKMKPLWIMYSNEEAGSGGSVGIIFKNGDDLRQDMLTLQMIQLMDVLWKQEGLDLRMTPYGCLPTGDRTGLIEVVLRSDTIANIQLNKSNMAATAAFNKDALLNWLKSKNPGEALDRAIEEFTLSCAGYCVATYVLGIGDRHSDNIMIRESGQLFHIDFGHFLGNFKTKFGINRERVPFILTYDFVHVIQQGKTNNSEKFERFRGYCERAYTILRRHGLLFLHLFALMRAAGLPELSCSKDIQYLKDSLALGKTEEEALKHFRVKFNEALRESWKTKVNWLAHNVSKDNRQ
T3 sequence (P27986 whole entry partner, species assumed): as the sequence (P27986 whole entry partner, species assumed) above
Summary of the method: as §1

p110γ = biological target: T4, p110γ (Homo sapiens, UniProt P48736); test: Transcreener KINASE Assay, kinase inhibition of p110γ; type: biochemical; conditions: for IC50: read-out: PI3Kγ IC50
T4 construct: purchased Invitrogen
T4 sequence (P48736 whole entry, species assumed): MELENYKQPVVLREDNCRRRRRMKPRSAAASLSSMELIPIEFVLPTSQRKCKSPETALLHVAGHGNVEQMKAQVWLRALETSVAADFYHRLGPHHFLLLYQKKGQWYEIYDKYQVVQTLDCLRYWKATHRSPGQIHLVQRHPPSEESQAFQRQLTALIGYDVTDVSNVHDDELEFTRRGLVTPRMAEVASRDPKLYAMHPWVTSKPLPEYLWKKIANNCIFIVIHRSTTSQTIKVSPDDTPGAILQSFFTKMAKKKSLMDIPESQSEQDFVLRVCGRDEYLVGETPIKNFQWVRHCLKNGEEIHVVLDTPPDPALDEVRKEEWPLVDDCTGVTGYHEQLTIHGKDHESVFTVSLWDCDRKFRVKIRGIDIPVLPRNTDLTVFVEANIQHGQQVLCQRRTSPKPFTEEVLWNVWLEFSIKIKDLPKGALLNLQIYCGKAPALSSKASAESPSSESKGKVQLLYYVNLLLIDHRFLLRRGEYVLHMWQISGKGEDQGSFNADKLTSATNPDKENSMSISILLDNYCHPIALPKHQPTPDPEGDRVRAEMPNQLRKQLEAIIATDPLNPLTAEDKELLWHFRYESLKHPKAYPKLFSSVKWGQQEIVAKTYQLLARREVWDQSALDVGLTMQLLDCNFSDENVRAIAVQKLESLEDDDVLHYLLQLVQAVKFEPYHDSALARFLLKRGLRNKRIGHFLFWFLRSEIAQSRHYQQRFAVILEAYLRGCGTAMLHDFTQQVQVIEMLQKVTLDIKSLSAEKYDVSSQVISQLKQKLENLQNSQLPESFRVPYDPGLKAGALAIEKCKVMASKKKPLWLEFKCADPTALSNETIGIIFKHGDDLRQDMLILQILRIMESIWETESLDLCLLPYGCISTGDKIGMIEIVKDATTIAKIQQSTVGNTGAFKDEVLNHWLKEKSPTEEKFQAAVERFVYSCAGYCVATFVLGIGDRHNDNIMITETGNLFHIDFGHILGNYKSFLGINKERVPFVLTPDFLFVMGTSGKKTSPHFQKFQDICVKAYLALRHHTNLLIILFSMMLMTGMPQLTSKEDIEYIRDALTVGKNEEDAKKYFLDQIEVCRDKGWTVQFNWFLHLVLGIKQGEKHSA
Summary of the method: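 Recombinant human PI3K complexes (p110α/p85α, p110β/p85α, p110δ/p85α, p110γ) assayed by ADP detection via competitive far-red fluorescence polarization immunoassay.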

PI3Kγ = biological target: T5, PI3Kγ (Mus musculus, UniProt Q9JHG7); test: Acumen Assay - Raw264.7 p-AKT Assay (C5a stimulated); type: cell-based; conditions: Raw264.7 macrophage cells, compound 30 min, 10 nM C5a 5 min, p-AKT (Ser473) readout; read-out: PI3Kγ cell-C5a Raw264.7 IC50
T5 construct: endogenous in cells; host or cells: Raw264.7 macrophage cells
Procedure: Acumen® eX3 (A Mμltilaser Microplate Cytometer For Enhanced High Content Screening): TTP LabTech
3×10^4 Raw264.7 macrophage cells were seeded into 96-well plates with DMEM+10% heat-inactivated FBS at […], 90 ul/well, overnight. After starvation for 3 hr at 37° C. under 5% CO2, Raw264.7 cells were treated with 10 ul/well various concentrations of compound or 0.5% DMSO for 30 min, and then stimulated with 10 ul/well 10 nM C5a for 5 min.
1.) Cells were fixed 110 μL of 4% pre-warmed Paraformaldehyde (2% final), incubate for 45 min at room temperature.
2.) Remove paraformaldehyde solution. Add 100 μL of ice-cold 0.1% Triton X-100 in PBS and leave at 4° C. for 30 min.
3.) Wash once in 100 μL PBS.
4.) Incubate with 100 μL blocking buffer (1% BSA, in PBS) for 2 hours at room temperature.
5.) Wash once for 5 min with 100 ul PBS.
6.) Incubate with 40 μL 1:200 dilution of phospho AKT (Ser473) rabbit antibody in antibody dilution buffer (0.1% BSA, in PBS) overnight at 4° C.
7.) Wash for 3 times for 10 min with 100 ul PBS.
8.) Incubate for 90 min at room temperature with 50 μL of goat anti-rabbit Alex488 antibody at a 1:1,000 dilution in antibody dilution buffer (0.1% BSA, in PBS). Cover plate in foil to keep out of light.
9.) Wash for 3 times for 10 min with 100 μL PBS.
10.) Add 50 μL of 1.5 μM Propidium Iodide solution to each well to determine cell number at a 1:1,000 dilution in PBS (stock: 1.5 mM).
11.) Incubate at room temperature for 30 min.
12.) Seal the plate with a black cover-seal (supplied with plate).
13.) Load the plate into the Acumen Explorer and scan with the appropriate instrument settings.

T1 sequence (P42336 whole entry, species assumed): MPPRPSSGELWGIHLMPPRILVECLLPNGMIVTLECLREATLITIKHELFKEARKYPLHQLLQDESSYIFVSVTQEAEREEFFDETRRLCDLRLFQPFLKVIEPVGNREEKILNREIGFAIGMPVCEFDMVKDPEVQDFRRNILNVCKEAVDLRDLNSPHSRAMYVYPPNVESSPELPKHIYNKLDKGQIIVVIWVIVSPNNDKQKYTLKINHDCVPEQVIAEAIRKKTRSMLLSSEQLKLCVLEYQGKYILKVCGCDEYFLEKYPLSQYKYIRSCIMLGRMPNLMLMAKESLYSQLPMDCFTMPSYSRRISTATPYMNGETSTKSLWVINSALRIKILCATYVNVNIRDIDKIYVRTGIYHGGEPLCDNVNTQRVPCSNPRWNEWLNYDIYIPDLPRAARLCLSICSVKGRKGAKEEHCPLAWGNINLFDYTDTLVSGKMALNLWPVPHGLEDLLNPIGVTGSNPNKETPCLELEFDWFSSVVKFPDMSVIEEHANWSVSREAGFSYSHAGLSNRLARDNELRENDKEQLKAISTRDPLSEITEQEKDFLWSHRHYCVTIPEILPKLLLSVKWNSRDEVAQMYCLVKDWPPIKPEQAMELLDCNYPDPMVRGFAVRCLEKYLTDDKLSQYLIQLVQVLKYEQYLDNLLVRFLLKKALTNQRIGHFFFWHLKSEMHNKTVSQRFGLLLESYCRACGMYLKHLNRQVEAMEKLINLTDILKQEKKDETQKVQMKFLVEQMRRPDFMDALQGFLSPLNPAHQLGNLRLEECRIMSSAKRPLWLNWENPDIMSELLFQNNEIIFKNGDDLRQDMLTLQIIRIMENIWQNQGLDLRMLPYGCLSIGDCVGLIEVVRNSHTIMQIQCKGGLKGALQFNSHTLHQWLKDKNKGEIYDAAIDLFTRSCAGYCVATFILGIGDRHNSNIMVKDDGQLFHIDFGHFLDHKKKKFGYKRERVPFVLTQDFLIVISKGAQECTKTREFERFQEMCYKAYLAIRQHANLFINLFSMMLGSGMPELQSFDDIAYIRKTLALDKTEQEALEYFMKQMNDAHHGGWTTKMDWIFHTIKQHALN
T1 sequence (P27986 whole entry partner, species assumed): as the sequence (P27986 whole entry partner, species assumed) above

SMILES	PI3Kα IH % @ 1 uM (p110α/p85α) [%]	PI3Kβ IH % @ 1 uM (p110β/p85α) [%]	PI3Kδ IH % @ 1 uM (p110δ/p85α) [%]	IC50 (p110δ/p85α) [nM]	PI3Kγ IH % @ 1 uM (p110γ) [%]	IC50 (p110γ) [nM]	IC50 (PI3Kγ) [nM]	IC50 (p110β/p85α; read-out: PI3Kβ IC50) [nM]
O=c1c2cccn2nc([C@@H]2CCCN2c2ncnc3[nH]cnc23)n1-c1ccccc1 [Compound 4]	2.6	17.4	94.1	10	92.4	–	3940	–
NC(=O)c1c[nH]c2ncnc(N3CCC[C@H]3c3nn4cccc4c(=O)n3-c3ccccc3)c12 [Compound 94, (S)-4-(2-(4-oxo-3-phenyl-3,4-dihydropyrrolo[1,2-f][1,2,4]triazin-2-yl)pyrrolidin-1-yl)-7H-pyrrolo[2,3-d]pyrimidine-5-carboxamide]	36.3	53.5	>100	–	>100	22	–	–
C=Cc1c[nH]c2ncnc(N3CCC[C@H]3c3nn4cccc4c(=O)n3-c3ccccc3)c12 [Compound 98, (S)-3-phenyl-2-(1-(5-vinyl-7H-pyrrolo[2,3-d]pyrimidin-4-yl)pyrrolidin-2-yl)pyrrolo[1,2-f][1,2,4]triazin-4(3H)-one]	16.2	15.2	88.4	–	87.9	99	–	–

More lines, now with the values ahead:

PI3Kα IH % @ 1 uM (p110α/p85α) [%]	PI3Kβ IH % @ 1 uM (p110β/p85α) [%]	PI3Kδ IH % @ 1 uM (p110δ/p85α) [%]	IC50 (p110δ/p85α) [nM]	PI3Kγ IH % @ 1 uM (p110γ) [%]	IC50 (p110γ) [nM]	IC50 (PI3Kγ) [nM]	IC50 (p110β/p85α; read-out: PI3Kβ IC50) [nM]	SMILES
12.0	17.8	>100	15	82.5	365	–	–	O=c1c2cccn2nc([C@@H]2CCCN2c2ncnc3[nH]cc(Cl)c23)n1-c1ccccc1 [Compound 3]
32.5	46.4	98.3	–	69.6	–	–	–	N#Cc1c(N)ncnc1N1CCC[C@H]1c1nn2cccc2c(=O)n1-c1ccccc1 [Compound 5]
24.6	5.4	100	–	72.0	312	–	–	N#Cc1c[nH]c2ncnc(N3CCC[C@H]3c3nn4cccc4c(=O)n3-c3cccc(Cl)c3)c12 [Compound 15]
28.3	74.9	99.3	6	>100	43	–	244	N#Cc1c[nH]c2ncnc(N3CCC[C@H]3c3nn4ccc(C#N)c4c(=O)n3-c3ccccc3)c12 [Compound 113]
